How the values were obtained:
C. elegans [1] = assay: Hatching inhibitor (FUdR) treatment of adult nematodes: hatching of laid eggs on culture plate and in capsule; assay type: in vivo, Caenorhabditis elegans
Experimental: A dose of a chemical agent required to make all eggs laid by a generation treated with the chemical agent unable to hatch varies depending on, for example, the type, the developmental stage or the sex of the nematode, a type of the chemical agent, or a treatment (exposure) time. For example, in a case where an FUdR solution is added to the culture plate and a nematode which is an adult hermaphrodite of C. elegans prior to laying eggs is exposed to the FUdR solution for a day, a sterilization dose at which the hatching rate of the next generation becomes 0% is not less than 0.5 mg/mL. Exposure of the adult nematode prior to laying eggs to the chemical agent of a dose lower than the sterilization dose allows for making adjustment so that only a certain percentage of eggs hatch.
The nematodes were cultured on the plate to which E. coli had been applied, until the nematodes became adult nematodes (before start of egg laying) on the third day after hatching. FUdR solution was added to this nematode culture plate, and the nematodes were cultured for another day. The FUdR solution was prepared by dissolving 5 mg of FUdR powder in 10 mL of sterile ultrapure water and stirring.
Adult nematodes on the fourth day after hatching which had been exposed to a hatching inhibitor for one day were collected together with E. coli from the culture plate with use of the platinum wire picker. Then, the nematodes were dropped in the aqueous sol which was the same as that prepared in Example 1, so that a sterilized adult nematode sol was prepared. Next, a micropipette was used to suck out the nematode sol. The nematode sol was then dropped in a calcium lactate solution which filled a plastic dish, and immersed in the calcium lactate solution for approximately 5 minutes. The hatching inhibitor-treated nematode-encapsulated capsule in which the adult nematodes that had been exposed to the hatching inhibitor and E. coli that would be food were encapsulated. At the end, a sterilized-nematode-encapsulated capsule was taken out from the calcium lactate solution and an outer phase membrane of this capsule was washed with ultrapure water.
An image of a spherical capsule in which approximately 10 adult nematodes on the fourth day after hatching and having undergone a hatching inhibition treatment by exposure to FUdR were encapsulated was captured from above with use of a digital camera attached to a microscope and the spherical capsule was observed, every 24 hours (every day) from immediately after the production of the spherical capsule. […] After one day and also after two days, it was possible to observe a state in which the adult nematodes moved inside the capsule. […]

C. elegans [2] = conditions: in vivo
Source text: Next, the nematodes having been grown in the nematode-encapsulated capsule were taken out, and locomotion of the nematodes was observed. As in Example 4, a hatching inhibitor-treated nematode-encapsulated capsule obtained two days after production of the capsule was transferred to a plate A1 with a tweezer, and the capsule was picked a plurality of times with a sterile toothpick, so that the inside of the capsule was exposed.

C. elegans [3] = assay: Chemotaxis assay to volatile substance on nematode trap plate A3, nematodes supplied from nematode-encapsulated capsule (Example 10); assay type: in vivo, Caenorhabditis elegans; conditions: capsule supply, mean of two assays, FIG. 19
Experimental: An assay for evaluating response of nematodes to a volatile substance was conducted with use of diacetyl (having a molarity of 11.5 M at 15° C.), which is a kind of volatile substance, and diluted solutions prepared by diluting the diacetyl by two different dilution factors of 10 and 10^5. Note that the assay method was a method using a nematode trap plate. […]
Next, several nematode-encapsulated capsules in which nematode eggs were encapsulated and grown to adult nematodes were each picked with a tip of a micropipette chip, so that an outer phase membrane was broken. […] Thereafter, the number of nematodes caught in the fall-in cavities was counted.
Assuming that the total number of nematodes caught in the two left fall-in cavities filled with the test solution was N1 and the total number of nematodes caught in the two right fall-in cavities filled with the control buffer solution was N2, a value obtained according to the following formula was defined as a chemotaxis index (C.I.). Then, the response was evaluated. […]

C. elegans [4] = assay: Chemotaxis assay to volatile substance on plate A3, conventional nematode supply method (Comparative Example 2); assay type: in vivo, Caenorhabditis elegans; conditions: mean of three assays, FIG. 20
Experimental: Assuming that the total number of nematodes caught in the two left fall-in cavities filled with the test solution was N1 and the total number of nematodes caught in the two right fall-in cavities filled with the control buffer solution was N2, a value obtained according to the following formula was defined as a chemotaxis index (C.I.). Then, the response was evaluated. Chemotaxis index (C. I.)=(N1−N2)/(N1+N2). As Comparative Example, evaluation of response of nematodes was carried out on the basis of a conventionally-known method for supplying nematodes. Used was a plate A3 which was identical to that used in Example 10 and in which two sets of two fall-in cavities were formed on left and right sides in symmetrical positions. A test solution was diluted solutions of diacetyl at two different concentrations as in Example 10. Note that the above dilution was conducted with use of a buffer solution, which served as a control. A nematode liquid containing nematodes having been washed in advance with wash buffer was dropped onto the center of the nematode assay plate, and a liquid component was wiped out with a paper wiper. Then, the nematodes were released on the plate. The plate was covered with a lid and sealed with a paraffin film. […] Thereafter, the number of nematodes caught in the fall-in cavities was counted.

[5] = 10-fold diluted solution of diacetyl
[6] = 10^5-fold diluted solution of diacetyl

| SMILES | hatching of eggs laid on culture plate to which FUdR was added (C. elegans [1]; FUdR solution 5 mg in 10 mL added to culture plate, adults from third day after hatching cultured another day) | sterilization dose at which the hatching rate of the next generation becomes 0% (C. elegans [1]; FUdR solution added to culture plate, adult hermaphrodite of C. elegans prior to laying eggs exposed for a day) | hatching of eggs laid in capsule by adult nematodes exposed to FUdR (C. elegans [1]; approximately 10 adults on fourth day after hatching, exposed one day on plate, encapsulated, observed up to two days after production) | hatching result with nematodes cultured for one day in culture solution containing FUdR (C. elegans [1]; culture solution containing FUdR instead of culture plate, nematode-encapsulated capsule) | locomotion of adult nematodes escaped from capsule (C. elegans [2]) | Chemotaxis index (C.I.) (C. elegans [3]; [5]) | Chemotaxis index (C.I.) (C. elegans [3]; [6]) | Chemotaxis index (C.I.) (C. elegans [4]; [5]) | Chemotaxis index (C.I.) (C. elegans [4]; [6]) |
| --- | --- | --- | --- | --- | --- | --- | --- | --- | --- |
| O=c1[nH]c(=O)n([C@H]2C[C@H](O)[C@@H](CO)O2)cc1F [FUdR, 5-Fluoro-2′-deoxyuridine] | the eggs did not hatch | not less than 0.5 mg/mL | did not hatch, and no larvae were observed | a result similar to that obtained by culturing on the culture plate to which the FUdR solution was added could be obtained | No remarkable abnormality in locomotion was observed | – | – | – | – |
| CC(=O)C(C)=O [diacetyl] | – | – | – | – | – | negative | positive | negative | positive |

From patent US20240410879A1, “NEMATODE-SEALED CAPSULE, METHOD FOR PRODUCING NEMATODE-SEALED CAPSULE, AND USE OF NEMATODE-SEALED CAPSULE” (NATIONAL INSTITUTES FOR QUANTUM SCIENCE AND TECHNOLOGY, priority 2021, published 2024)
